In US20260092071A1, “COMPOUNDS AND COMPOSITIONS AS SMARCA2/4 DEGRADERS AND USES THEREOF” (REGENTS OF THE UNIVERSITY OF MICHIGAN, priority 2022, published 2026):

Legend:
[1] = target: SMARCA2 (Homo sapiens, UniProt P51531); assay: HiBiT assay for protein degradation, Hela SMARCA2-HiBiT cells (A series); format: cell-based; set-up: Hela cells were genetically modified via CRISPR/Cas9 to fuse HiBiT to the carboxy terminus of SMARCA2; host or cells: HeLa (CRISPR/Cas9 HiBiT knock-in); settings: Hela SMARCA2-HiBiT cells, 24 hours treatment; for DC50: read-out: SMARC A2 Hela HiBit DC50; for Dmax: read-out: SMARC A2 Hela HiBit Dmax (%);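 on SMARC A2 Hela HiBit Dmax (%): 24 h compound treatment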
Summary of the method: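 SMARCA2 degradation was measured in HeLa cells whose endogenous SMARCA2 carries a carboxy-terminal HiBiT tag introduced by CRISPR/Cas9 (Promega CS302365). Cells were maintained in DMEM with FBS and penicillin-streptomycin. SMARCA2 levels were read at the end of the experiment by Nano-Glo® HiBiT lytic luminescence (Promega N3050) and analyzed in GraphPad Prism.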

[2] = target: SMARCA4 (Homo sapiens, UniProt P51532); assay: HiBiT assay for protein degradation, Hela SMARCA4-HiBiT cells (A series); format: cell-based; set-up: fuse HiBiT to the carboxy terminus of SMARCA2 (Promega CS302365) or SMARCA4 (Promega CS3023225); host or cells: HeLa (CRISPR/Cas9 HiBiT knock-in); settings: Hela SMARCA4-HiBiT cells, 24 hours treatment; for DC50: read-out: SMARC A4 Hela HiBit DC50; for Dmax: read-out: SMARC A4 Hela HiBit Dmax
Summary of the method: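 SMARCA4 degradation was measured in HeLa cells in which HiBiT had been knocked into the SMARCA4 carboxy terminus via CRISPR/Cas9 (Promega CS3023225). Cells were maintained in DMEM with FBS and penicillin-streptomycin. At the end of treatment, SMARCA4 levels were read by lytic HiBiT luminescence (Nano-Glo®, Promega N3050), and data were analyzed with GraphPad Prism.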

SMARCA4, sequence (P51532 whole entry): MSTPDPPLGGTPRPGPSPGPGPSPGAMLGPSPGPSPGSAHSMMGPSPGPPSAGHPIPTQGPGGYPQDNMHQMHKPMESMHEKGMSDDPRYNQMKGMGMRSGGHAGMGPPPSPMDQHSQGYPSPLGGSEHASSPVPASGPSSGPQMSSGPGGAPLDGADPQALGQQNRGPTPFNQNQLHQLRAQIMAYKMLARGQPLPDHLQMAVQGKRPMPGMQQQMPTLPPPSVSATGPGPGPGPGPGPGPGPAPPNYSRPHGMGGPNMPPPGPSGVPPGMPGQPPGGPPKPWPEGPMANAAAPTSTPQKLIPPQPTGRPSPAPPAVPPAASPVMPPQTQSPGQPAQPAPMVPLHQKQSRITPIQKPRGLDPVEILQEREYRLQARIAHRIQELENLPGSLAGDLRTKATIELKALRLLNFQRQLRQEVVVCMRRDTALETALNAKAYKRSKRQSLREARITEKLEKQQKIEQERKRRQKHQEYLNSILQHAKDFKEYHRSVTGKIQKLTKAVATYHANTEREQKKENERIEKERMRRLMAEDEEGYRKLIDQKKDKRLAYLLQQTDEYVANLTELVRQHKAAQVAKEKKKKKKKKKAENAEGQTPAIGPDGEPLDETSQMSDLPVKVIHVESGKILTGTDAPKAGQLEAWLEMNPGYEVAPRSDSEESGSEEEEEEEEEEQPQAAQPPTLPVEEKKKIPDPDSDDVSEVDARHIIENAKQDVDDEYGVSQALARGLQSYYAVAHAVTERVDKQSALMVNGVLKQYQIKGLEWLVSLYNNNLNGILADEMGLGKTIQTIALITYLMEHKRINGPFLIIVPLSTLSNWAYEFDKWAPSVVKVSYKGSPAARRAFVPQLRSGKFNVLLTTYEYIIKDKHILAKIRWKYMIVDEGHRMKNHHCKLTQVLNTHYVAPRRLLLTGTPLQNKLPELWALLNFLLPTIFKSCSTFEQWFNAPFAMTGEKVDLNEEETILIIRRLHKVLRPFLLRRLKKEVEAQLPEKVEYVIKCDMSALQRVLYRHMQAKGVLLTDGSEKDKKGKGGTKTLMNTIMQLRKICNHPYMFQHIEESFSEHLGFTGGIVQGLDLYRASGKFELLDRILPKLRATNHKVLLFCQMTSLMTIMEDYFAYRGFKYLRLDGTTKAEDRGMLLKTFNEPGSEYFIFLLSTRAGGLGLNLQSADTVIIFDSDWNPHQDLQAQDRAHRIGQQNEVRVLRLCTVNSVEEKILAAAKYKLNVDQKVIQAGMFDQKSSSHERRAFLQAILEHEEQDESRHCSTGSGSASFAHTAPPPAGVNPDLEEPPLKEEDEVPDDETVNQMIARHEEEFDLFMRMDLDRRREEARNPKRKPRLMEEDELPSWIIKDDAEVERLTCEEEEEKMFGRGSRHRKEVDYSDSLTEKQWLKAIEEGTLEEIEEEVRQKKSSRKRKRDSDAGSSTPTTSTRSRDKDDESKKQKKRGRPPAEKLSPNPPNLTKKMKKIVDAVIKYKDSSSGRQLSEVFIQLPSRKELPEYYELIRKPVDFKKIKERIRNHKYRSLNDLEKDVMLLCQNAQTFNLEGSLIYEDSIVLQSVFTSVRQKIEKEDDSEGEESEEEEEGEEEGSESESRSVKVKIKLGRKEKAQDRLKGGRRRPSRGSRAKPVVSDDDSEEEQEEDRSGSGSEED
SMARCA2, sequence (P51531 whole entry): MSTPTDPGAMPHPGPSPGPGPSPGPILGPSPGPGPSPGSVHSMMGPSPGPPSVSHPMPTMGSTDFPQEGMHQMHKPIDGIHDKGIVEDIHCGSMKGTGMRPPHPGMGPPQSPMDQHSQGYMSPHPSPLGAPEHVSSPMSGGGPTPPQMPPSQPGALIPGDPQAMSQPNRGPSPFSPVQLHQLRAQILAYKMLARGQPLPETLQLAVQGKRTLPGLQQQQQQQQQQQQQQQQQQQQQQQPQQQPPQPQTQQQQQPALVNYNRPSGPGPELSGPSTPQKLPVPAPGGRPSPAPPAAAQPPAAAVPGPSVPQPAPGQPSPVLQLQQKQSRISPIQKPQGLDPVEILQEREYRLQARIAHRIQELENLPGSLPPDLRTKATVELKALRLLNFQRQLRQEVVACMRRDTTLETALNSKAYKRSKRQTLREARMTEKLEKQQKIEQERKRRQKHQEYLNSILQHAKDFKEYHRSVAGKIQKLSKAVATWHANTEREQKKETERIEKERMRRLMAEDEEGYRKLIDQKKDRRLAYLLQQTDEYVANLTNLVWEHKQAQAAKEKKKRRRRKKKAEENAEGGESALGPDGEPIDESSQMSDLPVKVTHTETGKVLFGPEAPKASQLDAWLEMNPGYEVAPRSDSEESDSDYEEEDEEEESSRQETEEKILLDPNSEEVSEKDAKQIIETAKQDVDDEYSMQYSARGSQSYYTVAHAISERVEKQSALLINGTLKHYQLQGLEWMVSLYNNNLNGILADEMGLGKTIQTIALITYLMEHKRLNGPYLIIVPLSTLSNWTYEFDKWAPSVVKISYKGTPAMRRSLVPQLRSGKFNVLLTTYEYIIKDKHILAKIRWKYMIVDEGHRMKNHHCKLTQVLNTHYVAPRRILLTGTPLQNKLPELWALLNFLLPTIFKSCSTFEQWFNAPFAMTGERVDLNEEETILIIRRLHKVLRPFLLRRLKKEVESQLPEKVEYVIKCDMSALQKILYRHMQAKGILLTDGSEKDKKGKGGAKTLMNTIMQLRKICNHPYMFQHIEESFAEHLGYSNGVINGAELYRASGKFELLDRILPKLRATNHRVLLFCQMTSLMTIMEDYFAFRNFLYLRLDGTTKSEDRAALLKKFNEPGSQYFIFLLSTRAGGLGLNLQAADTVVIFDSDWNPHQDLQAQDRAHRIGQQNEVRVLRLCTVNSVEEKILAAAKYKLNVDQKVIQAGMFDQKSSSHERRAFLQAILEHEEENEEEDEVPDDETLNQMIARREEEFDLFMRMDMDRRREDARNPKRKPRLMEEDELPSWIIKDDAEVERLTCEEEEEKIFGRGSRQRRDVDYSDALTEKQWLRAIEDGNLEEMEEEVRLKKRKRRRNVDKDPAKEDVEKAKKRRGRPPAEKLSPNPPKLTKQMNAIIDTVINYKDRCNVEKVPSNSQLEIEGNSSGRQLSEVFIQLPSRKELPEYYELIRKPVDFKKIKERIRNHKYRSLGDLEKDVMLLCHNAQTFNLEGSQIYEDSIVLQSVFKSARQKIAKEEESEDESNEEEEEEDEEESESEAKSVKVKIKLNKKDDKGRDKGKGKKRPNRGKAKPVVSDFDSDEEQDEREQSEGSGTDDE

SMILES	DC50 [1]	Dmax [1]	DC50 [2]	Dmax [2]
Cc1ncsc1-c1ccc([C@@H](NC(=O)[C@@H]2C[C@@H](O)CN2C(=O)[C@@H](n2cc(C3CC3)nn2)C(C)(C)C)C(=O)N2CCC(N3CCC(c4ccc5c(c4)-n4c(nc(=O)c6c(Br)cccc64)C54CCCCC4)CC3)CC2)cc1 [Compound A138, (2S,4R)—N—((R)-2-(4-(4′-bromo-5′-oxo-5′H-spiro[cyclohexane-1,7′-indolo[1,2-a]quinazolin]-10′-yl)-[1,4′-bipiperidin]-1′-yl)-1-(4-(4-methylthiazol-5-yl)phenyl)-2-oxoethyl)-1-((S)-2-(4-cyclopropyl-1H-1,2,3-triazol-1-yl)-3,3-dimethylbutanoyl)-4-hydroxypyrrolidine-2-carboxamide]	< 10 nM	> 90%	< 10 nM	> 90%
Cc1ncsc1-c1ccc([C@@H](NC(=O)[C@@H]2C[C@@H](O)CN2C(=O)[C@@H](n2cc(C3CC3)nn2)C(C)(C)C)C(=O)N2CCC3(CCC(N4CCC(c5ccc6c(c5)-n5c(nc(=O)c7c(Br)cccc75)C65CCCCC5)CC4)CC3)CC2)cc1 [Compound A139, (2S,4R)—N—((R)-2-(9-(4-(4′-bromo-5′-oxo-5′H-spiro[cyclohexane-1,7′-indolo[1,2-a]quinazolin]-10′-yl)piperidin-1-yl)-3-azaspiro[5.5]undecan-3-yl)-1-(4-(4-methylthiazol-5-yl)phenyl)-2-oxoethyl)-1-((S)-2-(4-cyclopropyl-1H-1,2,3-triazol-1-yl)-3,3-dimethylbutanoyl)-4-hydroxypyrrolidine-2-carboxamide]	< 10 nM	> 90%	< 10 nM	70 to 90%
Cc1ncsc1-c1ccc([C@H](CC(=O)N2CCC(c3ccc4c(c3)-n3c(nc(=O)c5c(Cl)cccc53)C43CCCCC3)CC2)NC(=O)[C@@H]2C[C@@H](O)CN2C(=O)[C@@H](n2cc(C3CC3)nn2)C(C)(C)C)cc1 [Compound A140, (2S,4R)—N—((S)-3-(4-(4′-chloro-5′-oxo-5′H-spiro[cyclohexane-1,7′-indolo[1,2-a]quinazolin]-10′-yl)piperidin-1-yl)-1-(4-(4-methylthiazol-5-yl)phenyl)-3-oxopropyl)-1-((S)-2-(4-cyclopropyl-1H-1,2,3-triazol-1-yl)-3,3-dimethylbutanoyl)-4-hydroxypyrrolidine-2-carboxamide]	10 to 100 nM	70 to 90%	> 1000 nM	< 50%
Cc1ncsc1-c1ccc([C@H](CC(=O)N2CCC(CN3CCC(c4ccc5c(c4)-n4c(nc(=O)c6c(Br)cccc64)C54CCCCC4)CC3)CC2)NC(=O)[C@@H]2C[C@@H](O)CN2C(=O)[C@@H](n2cc(C3CC3)nn2)C(C)(C)C)cc1 [Compound A141, (2S,4R)—N—((S)-3-(4-((4-(4′-bromo-5′-oxo-5′H-spiro[cyclohexane-1,7′-indolo[1,2-a]quinazolin]-10′-yl)piperidin-1-yl)methyl)piperidin-1-yl)-1-(4-(4-methylthiazol-5-yl)phenyl)-3-oxopropyl)-1-((S)-2-(4-cyclopropyl-1H-1,2,3-triazol-1-yl)-3,3-dimethylbutanoyl)-4-hydroxypyrrolidine-2-carboxamide]	< 10 nM	> 90%	< 10 nM	> 90%
Cc1ncsc1-c1ccc([C@H](CC(=O)N2CCC3(CCC(CN4CCC(c5ccc6c(c5)-n5c(nc(=O)c7c(Br)cccc75)C65CCCCC5)CC4)CC3)CC2)NC(=O)[C@@H]2C[C@@H](O)CN2C(=O)[C@@H](n2cc(C3CC3)nn2)C(C)(C)C)cc1 [Compound A142, (2S,4R)—N—((S)-3-(9-((4-(4′-bromo-5′-oxo-5′H-spiro[cyclohexane-1,7′-indolo[1,2-a]quinazolin]-10′-yl)piperidin-1-yl)methyl)-3-azaspiro[5.5]undecan-3-yl)-1-(4-(4-methylthiazol-5-yl)phenyl)-3-oxopropyl)-1-((S)-2-(4-cyclopropyl-1H-1,2,3-triazol-1-yl)-3,3-dimethylbutanoyl)-4-hydroxypyrrolidine-2-carboxamide]	< 10 nM	> 90%	< 10 nM	70 to 90%
Cc1ncsc1-c1ccc([C@H](CC(=O)N2CCC(N3CCC(c4ccc5c(c4)-n4c(nc(=O)c6c(Cl)cccc64)C54CCCCC4)CC3)CC2)NC(=O)[C@@H]2C[C@@H](O)CN2C(=O)[C@@H](n2cc(C3CC3)nn2)C(C)(C)C)cc1 [Compound A143, (2S,4R)—N—((S)-3-(4-(4′-chloro-5′-oxo-5′H-spiro[cyclohexane-1,7′-indolo[1,2-a]quinazolin]-10′-yl)-[1,4′-bipiperidin]-1′-yl)-1-(4-(4-methylthiazol-5-yl)phenyl)-3-oxopropyl)-1-((S)-2-(4-cyclopropyl-1H-1,2,3-triazol-1-yl)-3,3-dimethylbutanoyl)-4-hydroxypyrrolidine-2-carboxamide]	10 to 100 nM	70 to 90%	100 to 1000 nM	50 to 69%
Cc1ncsc1-c1ccc([C@H](CC(=O)N2CCC3(CCC(N4CCC(c5ccc6c(c5)-n5c(nc(=O)c7c(Br)cccc75)C65CCCCC5)CC4)CC3)CC2)NC(=O)[C@@H]2C[C@@H](O)CN2C(=O)[C@@H](n2cc(C3CC3)nn2)C(C)(C)C)cc1 [Compound A144, (2S,4R)—N—((S)-3-(9-(4-(4′-bromo-5′-oxo-5′H-spiro[cyclohexane-1,7′-indolo[1,2-a]quinazolin]-10′-yl)piperidin-1-yl)-3-azaspiro[5.5]undecan-3-yl)-1-(4-(4-methylthiazol-5-yl)phenyl)-3-oxopropyl)-1-((S)-2-(4-cyclopropyl-1H-1,2,3-triazol-1-yl)-3,3-dimethylbutanoyl)-4-hydroxypyrrolidine-2-carboxamide]	< 10 nM	> 90%	10 to 100 nM	70 to 90%
COC(=O)C[C@H](NC(=O)[C@@H]1C[C@@H](O)CN1C(=O)[C@@H](n1cc([C@H]2CC[C@H](CN3CCC(c4ccc5c(c4)-n4c(nc(=O)c6c(Cl)cccc64)C54CCCCC4)CC3)CC2)nn1)C(C)(C)C)c1ccc(-c2scnc2C)cc1 [Compound A145, methyl(S)-3-((2S,4R)-1-((S)-2-(4-((1r,4S)-4-((4-(4′-chloro-5′-oxo-5′H-spiro[cyclohexane-1,7′-indolo[1,2-a]quinazolin]-10′-yl)piperidin-1-yl)methyl)cyclohexyl)-1H-1,2,3-triazol-1-yl)-3,3-dimethylbutanoyl)-4-hydroxypyrrolidine-2-carboxamido)-3-(4-(4-methylthiazol-5-yl)phenyl) propanoate]	< 10 nM	> 90%	> 1000 nM	50 to 69%
Cc1ncsc1-c1ccc([C@H](CC(=O)O)NC(=O)[C@@H]2C[C@@H](O)CN2C(=O)[C@@H](n2cc([C@H]3CC[C@H](CN4CCC(c5ccc6c(c5)-n5c(nc(=O)c7c(Cl)cccc75)C65CCCCC5)CC4)CC3)nn2)C(C)(C)C)cc1 [Compound A146, (S)-3-((2S,4R)-1-((S)-2-(4-((1r,4S)-4-((4-(4′-chloro-5′-oxo-5′H-spiro[cyclohexane-1,7′-indolo[1,2-a]quinazolin]-10′-yl)piperidin-1-yl)methyl)cyclohexyl)-1H-1,2,3-triazol-1-yl)-3,3-dimethylbutanoyl)-4-hydroxypyrrolidine-2-carboxamido)-3-(4-(4-methylthiazol-5-yl)phenyl) propanoic acid]	10 to 100 nM	70 to 90%	> 1000 nM	< 50%
Cc1ncsc1-c1ccc([C@H](CC(=O)N(C)C)NC(=O)[C@@H]2C[C@@H](O)CN2C(=O)[C@@H](n2cc([C@H]3CC[C@H](CN4CCC(c5ccc6c(c5)-n5c(nc(=O)c7c(Cl)cccc75)C65CCCCC5)CC4)CC3)nn2)C(C)(C)C)cc1 [Compound A147, (2S,4R)-1-((S)-2-(4-((1r,4S)-4-((4-(4′-chloro-5′-oxo-5′H-spiro[cyclohexane-1,7′-indolo[1,2-a]quinazolin]-10′-yl)piperidin-1-yl)methyl)cyclohexyl)-1H-1,2,3-triazol-1-yl)-3,3-dimethylbutanoyl)-N—((S)-3-(dimethylamino)-1-(4-(4-methylthiazol-5-yl)phenyl)-3-oxopropyl)-4-hydroxypyrrolidine-2-carboxamide]	< 10 nM	> 90%	> 1000 nM	50 to 69%
